The record followed here is ChEMBL document CHEMBL1944561, “Discovery and SAR exploration of a novel series of imidazo[4,5-b]pyrazin-2-ones as potent and selective mTOR kinase inhibitors” (Bioorg Med Chem Lett, 2011).

SMILES strings stand for the structures.

Series [1] addresses T1, Serine/threonine-protein kinase mTOR (Homo sapiens, UniProt P42345). Description: Inhibition of mTOR.
Series [2] has as its target T2, Glycogen synthase kinase-3 alpha (Homo sapiens, UniProt P49840). Description: Inhibition of GSK3alpha.
Series [3] is described as follows: Inhibition of AMPK assessed as activity remaining at 10 uM.
The target in series [4] is Protein-tyrosine kinase 6 (Homo sapiens) (UniProt Q13882). Description: Inhibition of BRK assessed as activity remaining at 10 uM.
Series [5] concerns the target Tyrosine-protein kinase BTK (Homo sapiens) (UniProt Q06187). Description: Inhibition of BTK assessed as activity remaining at 10 uM.
The target of series [6] is T3, Calcium/calmodulin-dependent protein kinase type IV (Homo sapiens) (UniProt Q16566).
T3 sequence (whole entry): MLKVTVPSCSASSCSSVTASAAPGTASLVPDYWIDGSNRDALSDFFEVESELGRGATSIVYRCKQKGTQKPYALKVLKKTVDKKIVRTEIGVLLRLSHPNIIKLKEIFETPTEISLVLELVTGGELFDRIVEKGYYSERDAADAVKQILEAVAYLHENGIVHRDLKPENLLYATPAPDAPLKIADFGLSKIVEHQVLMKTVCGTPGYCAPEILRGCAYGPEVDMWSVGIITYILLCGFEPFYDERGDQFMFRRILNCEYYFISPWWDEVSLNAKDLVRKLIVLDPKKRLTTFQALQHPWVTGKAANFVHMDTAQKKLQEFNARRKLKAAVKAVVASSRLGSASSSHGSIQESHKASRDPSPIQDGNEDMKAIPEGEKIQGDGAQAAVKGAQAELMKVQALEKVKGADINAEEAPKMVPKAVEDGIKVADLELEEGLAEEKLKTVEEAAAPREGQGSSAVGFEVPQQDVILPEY
Description: Inhibition of CaMK4 assessed as activity remaining at 10 uM.

Series [7] concerns the target Proto-oncogene tyrosine-protein kinase Src (Homo sapiens) (UniProt P12931). Description: Inhibition of cSRC assessed as activity remaining at 10 uM.
Series [8] addresses Epidermal growth factor receptor (Homo sapiens) (UniProt P00533). Description: Inhibition of EGFR assessed as activity remaining at 10 uM.
Series [9] concerns the target Tyrosine-protein kinase Fes/Fps (Homo sapiens) (UniProt P07332). Description: Inhibition of Fes assessed as activity remaining at 10 uM.
Series [10] has as its target T2, Glycogen synthase kinase-3 alpha. Description: Inhibition of GSK3alpha assessed as activity remaining at 10 uM.
Series [11] deals with Insulin-like growth factor 1 receptor (Homo sapiens) (UniProt P08069). Description: Inhibition of IGF1R assessed as activity remaining at 10 uM.
For series [12], the target named is Insulin receptor-related protein (Homo sapiens) (UniProt P14616). Description: Inhibition of IRR assessed as activity remaining at 10 uM.
For series [13], the target named is T4, Tyrosine-protein kinase JAK3 (Homo sapiens) (UniProt P52333).
T4 sequence (whole entry): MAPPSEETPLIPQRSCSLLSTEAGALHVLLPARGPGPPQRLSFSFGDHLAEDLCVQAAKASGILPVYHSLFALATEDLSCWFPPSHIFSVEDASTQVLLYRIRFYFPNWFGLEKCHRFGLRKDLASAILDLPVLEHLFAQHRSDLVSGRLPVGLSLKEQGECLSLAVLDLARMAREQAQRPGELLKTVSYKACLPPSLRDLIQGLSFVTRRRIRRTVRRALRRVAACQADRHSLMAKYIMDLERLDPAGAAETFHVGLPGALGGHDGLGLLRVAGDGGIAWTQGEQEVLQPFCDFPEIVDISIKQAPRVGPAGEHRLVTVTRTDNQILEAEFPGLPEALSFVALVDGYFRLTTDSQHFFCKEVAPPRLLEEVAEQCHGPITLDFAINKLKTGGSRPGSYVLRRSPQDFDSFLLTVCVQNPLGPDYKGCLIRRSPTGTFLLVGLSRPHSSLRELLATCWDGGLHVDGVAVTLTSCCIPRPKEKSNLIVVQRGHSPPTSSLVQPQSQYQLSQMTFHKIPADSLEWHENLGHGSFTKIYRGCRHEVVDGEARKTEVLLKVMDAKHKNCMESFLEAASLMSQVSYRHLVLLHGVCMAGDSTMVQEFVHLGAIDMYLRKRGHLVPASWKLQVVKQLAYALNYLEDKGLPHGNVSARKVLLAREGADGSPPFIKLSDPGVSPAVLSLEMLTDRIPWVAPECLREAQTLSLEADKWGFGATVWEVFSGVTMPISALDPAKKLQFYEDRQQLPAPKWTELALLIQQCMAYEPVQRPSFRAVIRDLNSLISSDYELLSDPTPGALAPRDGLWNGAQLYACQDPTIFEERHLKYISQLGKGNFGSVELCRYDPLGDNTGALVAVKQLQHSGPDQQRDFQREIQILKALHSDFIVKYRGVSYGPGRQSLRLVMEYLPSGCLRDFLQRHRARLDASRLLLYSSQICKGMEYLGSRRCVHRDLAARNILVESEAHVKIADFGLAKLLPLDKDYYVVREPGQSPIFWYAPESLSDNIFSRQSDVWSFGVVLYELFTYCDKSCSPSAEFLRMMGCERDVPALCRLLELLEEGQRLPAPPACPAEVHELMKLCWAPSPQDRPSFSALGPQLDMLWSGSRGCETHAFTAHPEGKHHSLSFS
Description: Inhibition of JAK3 assessed as activity remaining at 10 uM.

Series [14] has as its target Mitogen-activated protein kinase 14 (Homo sapiens) (UniProt Q16539). Description: Inhibition of p38alpha assessed as activity remaining at 10 uM.
The target of series [15] is Serine/threonine-protein kinase pim-2 (Homo sapiens) (UniProt Q9P1W9). Description: Inhibition of Pim2 assessed as activity remaining at 10 uM.
Series [16] in a line: Inhibition of PKA assessed as activity remaining at 10 uM.
The target in series [17] is Ribosomal protein S6 kinase alpha-1 (Homo sapiens) (UniProt Q15418). Description: Inhibition of Rsk1 assessed as activity remaining at 10 uM.
The target in series [18] is T1, Serine/threonine-protein kinase mTOR. Description: Inhibition of mTOR-mediated S6 phosphorylation in human PC3 cells. Format: cell-based, PC-3.
For series [19] the target is unchanged. Description: Inhibition of mTOR-mediated Akt phosphorylation in human PC3 cells. Format: cell-based, PC-3.
A further series has as its system PC-3. Description: Antiproliferative activity against human PC3 cells.
Series [20] is described as follows: Metabolic stability in rat hepatocytes assessed as compound remaining after 60 mins. Type of series: ADME, cell-based, Hepatocyte. As to conditions: read-out: Stability.
Series [21] deals with Tyrosine-protein kinase Lck (Homo sapiens) (UniProt P06239). Description: Inhibition of Lck assessed as activity remaining at 10 uM.
Series [22] has as its target Serine/threonine-protein kinase D2 (Homo sapiens) (UniProt Q9BZL6). Description: Inhibition of PKD2 assessed as activity remaining at 10 uM.
The target of series [23] is Serine/threonine-protein kinase PLK1 (Homo sapiens) (UniProt P53350). Description: Inhibition of Plk1 assessed as activity remaining at 10 uM.
Series [24] has as its target Tyrosine-protein kinase ZAP-70 (Homo sapiens) (UniProt P43403). Description: Inhibition of ZAP70 assessed as activity remaining at 10 uM.

Sequence of Protein-tyrosine kinase 6 (Homo sapiens) (Q13882 whole entry, looked up): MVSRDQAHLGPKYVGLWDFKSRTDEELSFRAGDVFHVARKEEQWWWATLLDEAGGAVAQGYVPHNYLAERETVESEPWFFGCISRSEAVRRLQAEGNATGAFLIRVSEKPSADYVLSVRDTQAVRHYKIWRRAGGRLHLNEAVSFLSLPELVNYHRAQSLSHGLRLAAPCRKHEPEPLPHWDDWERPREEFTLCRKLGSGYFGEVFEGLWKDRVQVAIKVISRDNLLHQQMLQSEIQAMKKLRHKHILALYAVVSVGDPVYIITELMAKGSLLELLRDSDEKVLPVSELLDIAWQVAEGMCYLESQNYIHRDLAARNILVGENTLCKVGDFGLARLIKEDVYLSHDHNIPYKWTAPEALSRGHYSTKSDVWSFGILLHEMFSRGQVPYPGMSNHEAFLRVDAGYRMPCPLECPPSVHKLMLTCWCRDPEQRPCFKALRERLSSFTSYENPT
Sequence of Insulin receptor-related protein (Homo sapiens) (P14616 27-742 limits assumed): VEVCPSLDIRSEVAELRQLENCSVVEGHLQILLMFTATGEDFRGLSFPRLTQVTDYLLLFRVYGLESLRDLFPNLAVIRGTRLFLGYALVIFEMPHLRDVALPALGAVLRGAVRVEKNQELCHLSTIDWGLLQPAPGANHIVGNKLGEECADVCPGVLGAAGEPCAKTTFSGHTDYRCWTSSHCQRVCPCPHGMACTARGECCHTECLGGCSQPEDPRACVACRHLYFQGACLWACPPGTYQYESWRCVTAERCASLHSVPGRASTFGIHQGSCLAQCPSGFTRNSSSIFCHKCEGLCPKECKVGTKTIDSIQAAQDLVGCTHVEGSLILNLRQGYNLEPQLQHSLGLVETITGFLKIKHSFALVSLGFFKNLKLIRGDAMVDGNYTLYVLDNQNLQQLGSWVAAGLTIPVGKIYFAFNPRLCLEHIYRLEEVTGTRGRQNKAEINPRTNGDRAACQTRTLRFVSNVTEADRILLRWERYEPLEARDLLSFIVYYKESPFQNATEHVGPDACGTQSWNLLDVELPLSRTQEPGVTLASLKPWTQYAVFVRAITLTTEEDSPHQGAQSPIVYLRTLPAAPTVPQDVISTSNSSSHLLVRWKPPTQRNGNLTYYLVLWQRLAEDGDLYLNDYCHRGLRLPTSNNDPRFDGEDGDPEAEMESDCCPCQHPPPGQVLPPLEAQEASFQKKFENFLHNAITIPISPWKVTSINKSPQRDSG
Sequence of Insulin receptor-related protein (Homo sapiens) (P14616 747-1297 limits assumed): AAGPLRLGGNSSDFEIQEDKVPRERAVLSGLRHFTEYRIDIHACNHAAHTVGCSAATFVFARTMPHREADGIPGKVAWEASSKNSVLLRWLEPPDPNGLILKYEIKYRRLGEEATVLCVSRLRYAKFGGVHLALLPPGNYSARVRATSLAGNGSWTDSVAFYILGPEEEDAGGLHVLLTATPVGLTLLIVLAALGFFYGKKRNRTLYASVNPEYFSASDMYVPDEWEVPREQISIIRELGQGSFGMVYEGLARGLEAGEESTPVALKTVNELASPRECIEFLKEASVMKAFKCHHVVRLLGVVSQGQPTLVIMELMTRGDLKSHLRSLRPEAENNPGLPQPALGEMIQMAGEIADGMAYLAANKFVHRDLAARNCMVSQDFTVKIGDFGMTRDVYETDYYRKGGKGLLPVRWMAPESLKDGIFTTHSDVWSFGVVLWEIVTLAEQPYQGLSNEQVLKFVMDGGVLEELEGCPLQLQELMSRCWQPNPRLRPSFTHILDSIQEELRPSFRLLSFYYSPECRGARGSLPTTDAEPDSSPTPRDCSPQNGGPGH
Sequence of Tyrosine-protein kinase Fes/Fps (Homo sapiens) (P07332 whole entry): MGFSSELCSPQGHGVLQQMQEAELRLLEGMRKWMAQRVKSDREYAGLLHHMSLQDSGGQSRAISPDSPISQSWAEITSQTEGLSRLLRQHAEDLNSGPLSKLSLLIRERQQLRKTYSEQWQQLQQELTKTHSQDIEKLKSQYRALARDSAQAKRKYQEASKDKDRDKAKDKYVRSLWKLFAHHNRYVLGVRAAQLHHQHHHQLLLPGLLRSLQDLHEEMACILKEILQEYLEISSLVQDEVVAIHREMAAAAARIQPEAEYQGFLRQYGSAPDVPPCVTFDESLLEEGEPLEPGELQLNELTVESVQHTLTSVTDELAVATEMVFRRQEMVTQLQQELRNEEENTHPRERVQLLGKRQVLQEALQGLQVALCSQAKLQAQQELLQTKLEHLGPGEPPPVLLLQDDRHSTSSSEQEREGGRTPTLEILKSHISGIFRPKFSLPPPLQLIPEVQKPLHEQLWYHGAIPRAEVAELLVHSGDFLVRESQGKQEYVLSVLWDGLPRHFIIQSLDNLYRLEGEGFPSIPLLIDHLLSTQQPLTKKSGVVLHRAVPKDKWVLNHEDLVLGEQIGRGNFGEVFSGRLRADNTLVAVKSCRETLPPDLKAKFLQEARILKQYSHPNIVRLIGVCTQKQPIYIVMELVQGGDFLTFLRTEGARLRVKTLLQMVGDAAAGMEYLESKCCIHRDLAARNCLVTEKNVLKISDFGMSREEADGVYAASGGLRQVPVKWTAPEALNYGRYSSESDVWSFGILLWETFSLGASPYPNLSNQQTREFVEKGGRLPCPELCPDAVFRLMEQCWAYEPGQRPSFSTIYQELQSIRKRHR
Sequence of Tyrosine-protein kinase BTK (Homo sapiens) (Q06187 whole entry): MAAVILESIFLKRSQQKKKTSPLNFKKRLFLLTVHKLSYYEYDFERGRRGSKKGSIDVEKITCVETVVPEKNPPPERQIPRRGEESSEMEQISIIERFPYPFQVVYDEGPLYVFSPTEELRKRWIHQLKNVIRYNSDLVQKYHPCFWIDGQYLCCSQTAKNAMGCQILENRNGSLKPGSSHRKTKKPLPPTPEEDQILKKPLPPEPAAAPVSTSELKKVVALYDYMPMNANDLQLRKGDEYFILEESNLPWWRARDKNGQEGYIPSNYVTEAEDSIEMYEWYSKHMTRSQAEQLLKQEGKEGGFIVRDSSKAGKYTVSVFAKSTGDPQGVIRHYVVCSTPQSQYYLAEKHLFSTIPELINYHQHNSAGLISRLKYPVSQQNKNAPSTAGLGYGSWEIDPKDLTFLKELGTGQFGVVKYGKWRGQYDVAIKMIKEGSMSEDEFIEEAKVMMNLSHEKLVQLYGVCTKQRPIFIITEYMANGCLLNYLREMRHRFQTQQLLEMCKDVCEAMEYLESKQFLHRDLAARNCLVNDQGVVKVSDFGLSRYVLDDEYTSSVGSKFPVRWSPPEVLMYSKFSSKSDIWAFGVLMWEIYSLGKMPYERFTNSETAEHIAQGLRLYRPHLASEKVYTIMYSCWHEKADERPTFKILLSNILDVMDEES
Sequence of Epidermal growth factor receptor (Homo sapiens) (P00533 whole entry): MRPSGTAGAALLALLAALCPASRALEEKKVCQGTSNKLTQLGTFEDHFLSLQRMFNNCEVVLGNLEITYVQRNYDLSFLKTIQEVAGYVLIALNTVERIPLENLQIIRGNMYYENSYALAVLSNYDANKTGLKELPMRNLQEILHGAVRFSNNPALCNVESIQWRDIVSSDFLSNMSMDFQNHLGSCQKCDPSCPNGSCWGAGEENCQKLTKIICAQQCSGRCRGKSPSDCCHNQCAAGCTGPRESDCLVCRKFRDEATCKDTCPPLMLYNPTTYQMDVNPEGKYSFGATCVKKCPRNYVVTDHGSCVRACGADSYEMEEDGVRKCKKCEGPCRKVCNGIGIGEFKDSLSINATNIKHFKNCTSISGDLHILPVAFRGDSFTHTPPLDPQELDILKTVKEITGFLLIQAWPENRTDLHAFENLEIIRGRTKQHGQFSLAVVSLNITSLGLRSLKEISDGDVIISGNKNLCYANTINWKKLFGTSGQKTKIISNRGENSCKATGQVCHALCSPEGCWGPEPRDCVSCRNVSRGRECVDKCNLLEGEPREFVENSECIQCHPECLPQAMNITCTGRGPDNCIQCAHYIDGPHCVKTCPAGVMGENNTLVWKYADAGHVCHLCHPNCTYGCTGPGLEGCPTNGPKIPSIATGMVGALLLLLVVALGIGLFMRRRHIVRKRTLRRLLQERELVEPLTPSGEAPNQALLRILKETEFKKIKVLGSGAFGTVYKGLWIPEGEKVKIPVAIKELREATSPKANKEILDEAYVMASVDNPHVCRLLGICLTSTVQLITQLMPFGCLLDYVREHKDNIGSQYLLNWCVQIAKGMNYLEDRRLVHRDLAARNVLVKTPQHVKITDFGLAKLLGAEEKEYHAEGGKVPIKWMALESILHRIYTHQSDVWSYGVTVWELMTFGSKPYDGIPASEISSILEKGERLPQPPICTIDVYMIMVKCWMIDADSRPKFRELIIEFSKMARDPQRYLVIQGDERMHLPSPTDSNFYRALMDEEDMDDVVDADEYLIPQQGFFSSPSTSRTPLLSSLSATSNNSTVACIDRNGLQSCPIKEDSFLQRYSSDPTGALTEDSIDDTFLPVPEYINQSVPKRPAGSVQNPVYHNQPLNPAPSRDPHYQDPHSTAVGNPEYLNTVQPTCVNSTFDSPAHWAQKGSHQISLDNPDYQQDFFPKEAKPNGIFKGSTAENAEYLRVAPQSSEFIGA
Sequence of Proto-oncogene tyrosine-protein kinase Src (Homo sapiens) (P12931 2-536 limits assumed): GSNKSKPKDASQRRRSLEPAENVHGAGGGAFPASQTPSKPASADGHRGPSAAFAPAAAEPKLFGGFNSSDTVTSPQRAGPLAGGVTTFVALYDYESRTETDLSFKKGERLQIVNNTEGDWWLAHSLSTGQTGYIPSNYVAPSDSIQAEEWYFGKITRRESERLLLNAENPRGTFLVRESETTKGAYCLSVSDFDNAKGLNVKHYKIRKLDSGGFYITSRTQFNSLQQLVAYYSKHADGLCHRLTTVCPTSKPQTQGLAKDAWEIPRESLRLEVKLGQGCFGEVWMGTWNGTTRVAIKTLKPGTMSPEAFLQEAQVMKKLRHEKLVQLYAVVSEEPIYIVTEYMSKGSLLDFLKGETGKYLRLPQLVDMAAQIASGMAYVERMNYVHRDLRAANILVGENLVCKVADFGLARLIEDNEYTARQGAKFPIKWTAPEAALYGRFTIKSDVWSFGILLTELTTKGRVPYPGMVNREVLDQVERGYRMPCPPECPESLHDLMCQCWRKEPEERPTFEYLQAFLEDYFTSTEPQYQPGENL

As to `CC(C)(O)c1ccc(-c2cnc3[nH]c(=O)n(CC4CCCCC4)c3n2)cc1`, the IC50 in [1] was 30 nM; in series [2], 600 nM; in series [18], 1350 nM; in [19], 322 nM; in the series on PC-3 it was 1380 nM. Also, the Activity in series [3] was determined as 89%; in [4], 92%; in series [5], 84%; in [6], 99%; in series [7], 73%; in series [8] it was 98%. The Activity in series [9] is 81%; in series [10], 16%; in series [11] it was 91%; in [12] it was 89%; in series [13], 101%; in series [14], 92%. The Activity in series [15] is 91%; in series [16], 95%; in [17] it was 89%. The remaining at 1 h in series [20] was 65%.

Take `O=c1[nH]c2ncc(-c3ccc4[nH]cnc4c3)nc2n1CC1CCCCC1`: the IC50 in series [1] came out at 21 nM; in series [2], 990 nM; in series [18], 427 nM; in series [19], 137 nM; in the series with PC-3 it was 1160 nM. Besides, the Activity in [3] was 76%; in series [4], 82%; in series [5] it was 88%; in series [6] it was 101%; in series [7], 63%; in [8] it was 87%. The Activity in series [9] amounted to 88%; in series [10], 3%; in [11], 96%; in [12], 92%; in series [13], 95%; in [14] it was 75%. Further, the results for the Activity in [15], in [16] and in series [17] were 101%, 90% and 74%, respectively.

With `O=c1[nH]c2ncc(-c3ccc(-c4nc[nH]n4)cc3)nc2n1CC1CCOCC1`, the IC50 in series [1] worked out at 2 nM; in series [18] it was 273 nM; in [19], 150 nM; with PC-3, 1370 nM. In addition, the Activity was determined as 101% in series [3]; 93% in series [4]; 90% in series [5]; 103% in [6]; 92% in series [7]; 88% in series [8]. For the same molecule, the Activity in series [9] is 89%; in [10], 39%; in series [11], 95%; in series [12] it was 90%; in series [13], 96%; in series [21], 86%. Further, the Activity in [14] came to 92%; in [15] it was 93%; in series [16] it was 95%; in series [22], 94%; in series [23], 95%; in series [17] it was 93%. In addition, in series [24], the Activity stood at 99%.

One may read the IC50 as the midpoint of a concentration-inhibition curve. A low value points to greater potency.
